Test results as given in patent US7964598B2 (The J. David Gladstone Institutes, priority 1995, dated 2011).
Several values for one entry are separate records, joined by “and”; a condition that tells them apart may be missing. Equal values may be shown once. Entries after “also recorded” stand apart in the source; their conditions may differ.

Assays:
apoE4 = target: T1, apoE4 (Homo sapiens, UniProt P02649, C130R); assay: Emulsion binding assay for domain interaction, apoE4
T1 construct: made in house
T1 sequence (P02649 19-317 C130R): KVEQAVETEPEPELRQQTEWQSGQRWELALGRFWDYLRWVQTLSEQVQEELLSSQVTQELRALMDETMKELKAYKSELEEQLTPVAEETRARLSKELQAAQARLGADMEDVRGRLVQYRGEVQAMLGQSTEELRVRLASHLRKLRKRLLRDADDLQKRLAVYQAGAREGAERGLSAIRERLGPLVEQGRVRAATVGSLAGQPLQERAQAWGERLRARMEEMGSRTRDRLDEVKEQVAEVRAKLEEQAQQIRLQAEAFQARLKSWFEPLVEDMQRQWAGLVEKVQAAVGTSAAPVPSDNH
Experimental: (§1) Preparation of emulsion particles. Triolein (160 mg) and L-alpha-Phosphatidylcholine (40 mg) are combined and dried under nitrogen. After the addition of 8 mls of buffer (10 mM Tris, 100 mM KCl, 1 mM EDTA, pH 8.0), the mixture is sonicated in a water bath to obtain a heterogeneous mix of emulsion particles. The particles are harvested by ultracentrifugation (TLA 100.2 rotor, 30,000 rpm for 30 minutes) and the subsequent lipid cake is removed by tube slicing and resuspended in 100 μt 20 mM Phosphate Buffer (PB). Triolein and phospholipid content are measured and total emulsion particle concentration is determined.
(§2) Radiolabelling Freshly denatured and renatured Apolipoprotein E3 and E4 are radiolabelled using Bolton-Hunter Reagent [^125I] (ICN). Specific Activity is determined using Lowry method and Gamma 8000 counter.
(§3) Binding Affinity Assay. […] In glass tubes, 25 μg of protein (with iodinated tracer) was reduced with 1% β-mercaptoethanol. Two hundred and fifty μg of emulsion particles and 2.5 μl of compound (10 mM stock) were added and the final mixture was brought up to 250 μl with 20 mM phosphate buffer (PB). The reaction mixture was then incubated in a 37° C. water bath for 2 hours before being transferred to 1.5 ml ultracentrifuge tubes. Finally, 50 μl of 60% sucrose was mixed with the sample and 400 μl 20 mM PB was carefully layered on top. Using a TLA 100.2 rotor, the tube was spun at 30,000 rpm for 30 minutes and subsequently cut to separate the floating emulsion particle layer from the free protein at the bottom of the tube. These fractions were then combined with the respective half of the actual tube and counted using a Gamma-8000. […] Protein-only assays yielded 94.5-96.6% of protein accumulated in the bottom portion of the tube. In emulsion particle-only assays, 94% of emulsion particles accumulated in the top portion of the tube.
(§4) Preparation of Emulsion Particles and VLDL Binding Affinity Assay. VLDL-like emulsion particles were prepared using triolein (160 mg) and L-alpha-phosphatidylcholine (40 mg), as described. Dong and Weisgraber (1996) supra; and Dong et al. (1994) J. Biol. Chem. 269:22358-22365.

apoE3 = target: T2, apoE3 (Homo sapiens, UniProt P02649); assay: Emulsion binding assay, apoE3
T2 construct: made in house
T2 sequence (P02649 19-317): as the sequence (P02649 19-317 C130R) above, with R112C counted along it
Experimental: as §1, §2, §3, §4

YFP-apoE4-CFP cells = assay: MTT cytotoxicity assay; assay type: cell-based, mouse; conditions: 5-10 μM
Excerpt: Since the emission spectrum of CFP (460-520 nm) overlaps with the excitation spectrum of YFP (480-520 nm), FLEXstation (Molecular Devices) can be used to measure FRET in living cells expressing YFP-apoE3-CFP or YFP-apoE4-CFP in a high throughput manner. […] Thus, the ratio of FRET to CFP emission in cells expressing YFP-apoE4-CFP is much higher than that in those expressing YFP-apoE3-CFP (FIG. 31). […] Since the FLEXstation can read FRET in both cells and the culture media treated without or with various small molecules, this assay allows one to know whether a small molecule affects apoE4 domain interaction only in the medium (“medium FRET”) or also inside the cell (“intracellular FRET”). In addition, after measurement of the intracellular FRET, the cells can be incubated further with MTT to determine the cytotoxicity of the compound. Thus, the cell-based FRET assay can simultaneously provide three sets of data-intracellular FRET, medium FRET, and cytotoxicity.

Neuro-2a cells = assay: Aβ-induced apoptosis (DNA fragmentation assay); assay type: cell-based, mouse
Experimental: DNA Fragmentation Assay—DNA fragmentation of apoptotic cells was determined with Cell Death Detection ELISA kits (Roche, Indianapolis, Ind.).
FIG. 38. […] Control cells were not treated with Aβ1-42. Apoptotic cell death was measured with a DNA fragmentation assay. Values are the mean±S.D. of three separate experiments.
FIGS. 39A and 39B. […] Lysosomal leakage was quantitated by assaying cytosolic 0-hexosaminidase activity. […] Conditioned media were prepared as described above. Apoptosis was quantitated by measuring DNA fragmentation.

Water solubility = assay type: physicochemical
[1] = follow-up assay, second E4 control
[2] = initial assay, 2.5 μl of compound (10 mM stock) in 250 μl, 37° C. 2 hours

SMILES: O=S(=O)([O-])c1ccc2c(c1)c(Nc1ccc(S(=O)(=O)O)cc1)cc1c2nc2ccccc2[n+]1-c1ccccc1 [GIND-25, azocarmine-G]
- apoE4 domain interaction / binding of apoE4 to VLDL-like emulsion particles (apoE4): capable of blocking apoE4 domain interaction; also recorded: inhibited significantly
- E4 + cpd n = 3, % bound (apoE4; follow-up assay): 57%
- E4 + cpd n = 3, % free (apoE4; follow-up assay): 43%
- E4 control, % bound (apoE4; [1]): 46%
- E4 control, % free (apoE4; [1]): 54%
- E4 + cpd, % bound (apoE4; [2]): 12% and 15%
- E4 + cpd, % free (apoE4; [2]): 88% and 85%
- binding of apoE3 to the emulsion particles (apoE3): no significant effect
- E3 + compound, % bound (apoE3; follow-up assay): 30%
- E3 + compound, % free (apoE3; follow-up assay): 70%
- cytotoxicity (MTT assay) (YFP-apoE4-CFP cells): did not cause significant cytotoxicity
- apoptosis, cells with medium alone or medium containing apoE3 plus Aβ1-42 (Neuro-2a cells): no significant effect
- apoE4 potentiation of Aβ-induced apoptosis (Neuro-2a cells; apoE4 conditioned medium, Aβ1-42): block; also recorded: abolish
- water solubility (Water solubility): water-soluble
